Experimental data taken from paper PMC6394990, “Detailed characterization of the solution kinetics and thermodynamics of biotin, biocytin and HABA binding to avidin and streptavidin” (PLoS ONE, 2019).
Where two headings read alike, the source gives them in different places.

Biological target: T1, avidin (AV) (Gallus gallus, UniProt P02701)
T1 construct: purchased Calbiochem (La Jolla, CA)
Test: Stopped-flow association kinetics of dye-labeled biotin probes binding to avidin (F(t), rF(t); Arrhenius plots/global fitting)
Set-up: ln(k) / dS+ / dG+ / Eon for BFl / b of the line y = m1x+b1: unit not given here
Settings: for k(average): k (full value)
Experimental: These reactions were carried out in a buffered solution of 10 mM Tris-HCl, 100 mM KCl, 2.5 mM MgCl2 and 1 mM CaCl2 at pH 8 and only AV-BcO reactions included pH 9 and 10. The concentrations, after mixing, were of 20 nM of dye-labeled B7 probe and 260 nM, 520 nM or 1040 nM of AV; and 200 nM, 300 nM, 400 nM or 800 nM of SAV at temperatures of 10, 15, 20 and 25°C. The deglycosylation of AV (for comparative association reactions) was carried out using the provided standard protocol with endoglycosidase H [47], both with and without incubation of a denaturant solution (2% SDS and 1M 2-mercaptoethanol).
The reactions were collected with the SF instrument, described previously. The fluorescence signal was collected through a 520 nm interference filter (Oriel Corp., Stratford, CT) with a detector time constant and SF dead time of 1 μs and 1 ms, respectively. The excitation light was provided by the Coherent Ar^+ ion laser (described above) at 488 nm with […] of incident power on the reaction cuvette. The laser source was followed by the photo-elastic modulator described above with the axis oriented 45^o with respect to the electric vector of the incident light and with the half-wave modulation (50 kHz) set for 488 nm excitation. The demodulation circuitry following the photomultiplier provided a DC(t) and a rectified AC(t) which were converted to digital data by a high-speed digitizer (PCI-5122) from National Instruments (Austin, TX) with 14-bit resolution and 100 MHz bandwidth, through channels 0 and 1. The data acquisition was controlled by LabVIEW (Vr 8) software at a collection rate of 6120 data points/second and stored in spreadsheets. The AC(t) and DC(t) data were baseline corrected before obtaining the signal ratio (Eq 4) as a function of time (ρt).
The constant AGain is the instrumental amplitude gain and was evaluated by solving ρ(t) using the known steady state anisotropy (rss) of the complexes which is equivalent to the r(t) at t = ∞; and H, obtained from the equivalent grating factor (G) for the filters and photo multiplier tubes in the SF. For the probes used in here G was 0.82 and H = (1-G)/(1+G) = 0.099. Knowing Again and H, the AC(t) and DC(t) signals can be solved for r(t) and F(t) (Eqs 4 and 5) and the normalized fluorescence, F¯(t) , and corrected fluorescence anisotropy, rF¯(t), were obtained when F¯(0) and rF¯(0) were scaled to 1 at t = 0.
The F¯(t) (Eq 6) is equivalent to (I||) + 2 (I⊥) and proportional to quantum yield (QYi), molar absorptivity (εi) and to the formation or disappearance of the emitting species Xi(t); and rF¯(t) including the steady state anisotropies (rss) of each fluorescent species (Eq 7).
The possible reaction models were discriminated by the squared residuals of the observed and calculated association traces of both fluorescence and anisotropy fluorescence signals, F¯(t) and rF¯(t) , respectively.

T1 sequence (P02701 25-152): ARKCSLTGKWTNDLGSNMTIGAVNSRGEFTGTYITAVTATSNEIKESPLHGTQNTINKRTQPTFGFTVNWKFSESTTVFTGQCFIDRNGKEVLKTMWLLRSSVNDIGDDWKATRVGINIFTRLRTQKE

## NC(CCCCNC(=O)CCCC[C@@H]1SC[C@@H]2NC(=O)N[C@@H]21)C(=O)NCCCCCNC(=O)c1ccc(-c2c3cc(F)c(=O)cc-3oc3cc(O)c(F)cc23)c(C(=O)O)c1 (some centres unmarked) [BcO, Oregon green 488 Biocytin]
25°C and pH 8 vs 25°C and pH 5
  kon fold slower than Green's 7 × 10^7 M^-1s^-1: 7.4 X
AV
  fold by which the SPR kon (ref 20) is slower than the kon of the probe: ~ 5 X
AV 1, reacting with BcO
  b of the line y = m1x+b1: 40.2925
AV 1, reacting with BcO, x = 1/Temp
  slope, m of the line y = m1x+b1: -7277.8
AV-BcO, 10 °C, 260 nM
  kon by corrected fluorescence anisotropy rF(t): 2.7e+06 ± 100000 M⁻¹ s⁻¹
AV-BcO, 10 °C, 260 nM, read-out: kon by corrected fluorescence anisotropy rF(t)
  kon: 2.65e+06 M⁻¹ s⁻¹
AV-BcO, 10 °C, 260 nM, read-out: kon by fluorescence change F(t)
  kon: 2.4e+06 ± 100000 M⁻¹ s⁻¹
AV-BcO, 10 °C, 260 nM, read-out: kon by fluorescence change F(t), right block without spread
  kon: 2.42e+06 M⁻¹ s⁻¹
AV-BcO, 10 °C, 520 nM
  kon by corrected fluorescence anisotropy rF(t): 2.7e+06 ± 100000 M⁻¹ s⁻¹
AV-BcO, 10 °C, 520 nM, read-out: kon by corrected fluorescence anisotropy rF(t)
  kon: 2.69e+06 M⁻¹ s⁻¹
AV-BcO, 10 °C, 520 nM, read-out: kon by fluorescence change F(t)
  kon: 2.6e+06 ± 200000 M⁻¹ s⁻¹
AV-BcO, 10 °C, 520 nM, read-out: kon by fluorescence change F(t), right block without spread
  kon: 2.61e+06 M⁻¹ s⁻¹
AV-BcO, 10 °C, 1040 nM
  kon by corrected fluorescence anisotropy rF(t): 2.7e+06 ± 100000 M⁻¹ s⁻¹
AV-BcO, 10 °C, 1040 nM, read-out: kon by corrected fluorescence anisotropy rF(t)
  kon: 2.72e+06 M⁻¹ s⁻¹
AV-BcO, 10 °C, 1040 nM, read-out: kon by fluorescence change F(t)
  kon: 2.5e+06 ± 200000 M⁻¹ s⁻¹
AV-BcO, 10 °C, 1040 nM, read-out: kon by fluorescence change F(t), right block without spread
  kon: 2.52e+06 M⁻¹ s⁻¹
AV-BcO, 10 °C, average of F(t) and rF(t) at 260, 520, 1040 nM, read-out: kon, Average
  kon: 2.6e+06 M⁻¹ s⁻¹
AV-BcO, 15 °C, 260 nM
  kon by corrected fluorescence anisotropy rF(t): 4e+06 ± 100000 M⁻¹ s⁻¹
AV-BcO, 15 °C, 260 nM, read-out: kon by corrected fluorescence anisotropy rF(t)
  kon: 4e+06 M⁻¹ s⁻¹
AV-BcO, 15 °C, 260 nM, read-out: kon by fluorescence change F(t)
  kon: 4.1e+06 ± 100000 M⁻¹ s⁻¹
AV-BcO, 15 °C, 260 nM, read-out: kon by fluorescence change F(t), right block without spread
  kon: 4.1e+06 M⁻¹ s⁻¹
AV-BcO, 15 °C, 520 nM
  kon by corrected fluorescence anisotropy rF(t): 3.82e+06 ± 100000 M⁻¹ s⁻¹
AV-BcO, 15 °C, 520 nM, read-out: kon by corrected fluorescence anisotropy rF(t)
  kon: 3.82e+06 M⁻¹ s⁻¹
AV-BcO, 15 °C, 520 nM, read-out: kon by fluorescence change F(t)
  kon: 3.95e+06 ± 100000 M⁻¹ s⁻¹
AV-BcO, 15 °C, 520 nM, read-out: kon by fluorescence change F(t), right block without spread
  kon: 3.95e+06 M⁻¹ s⁻¹
AV-BcO, 15 °C, 1040 nM
  kon by corrected fluorescence anisotropy rF(t): 4e+06 ± 200000 M⁻¹ s⁻¹
AV-BcO, 15 °C, 1040 nM, read-out: kon by corrected fluorescence anisotropy rF(t)
  kon: 4e+06 M⁻¹ s⁻¹
AV-BcO, 15 °C, 1040 nM, read-out: kon by fluorescence change F(t)
  kon: 3.9e+06 ± 200000 M⁻¹ s⁻¹
AV-BcO, 15 °C, 1040 nM, read-out: kon by fluorescence change F(t), right block without spread
  kon: 3.9e+06 M⁻¹ s⁻¹
AV-BcO, 15 °C, average of F(t) and rF(t) at 260, 520, 1040 nM, read-out: kon, Average
  kon: 4e+06 M⁻¹ s⁻¹
AV-BcO, 20 °C, 260 nM, read-out: kon by corrected fluorescence anisotropy rF(t)
  kon: 5.9e+06 M⁻¹ s⁻¹
AV-BcO, 20 °C, 260 nM, read-out: kon by fluorescence change F(t)
  kon: 5.7e+06 ± 100000 M⁻¹ s⁻¹
AV-BcO, 20 °C, 260 nM, read-out: kon by fluorescence change F(t), right block without spread
  kon: 5.7e+06 M⁻¹ s⁻¹
AV-BcO, 20 °C, 520 nM
  kon by corrected fluorescence anisotropy rF(t): 5.8e+06 ± 100000 M⁻¹ s⁻¹
AV-BcO, 20 °C, 520 nM, read-out: kon by corrected fluorescence anisotropy rF(t)
  kon: 5.8e+06 M⁻¹ s⁻¹
AV-BcO, 20 °C, 520 nM, read-out: kon by fluorescence change F(t)
  kon: 5.9e+06 ± 300000 M⁻¹ s⁻¹
AV-BcO, 20 °C, 520 nM, read-out: kon by fluorescence change F(t), right block without spread
  kon: 5.9e+06 M⁻¹ s⁻¹
AV-BcO, 20 °C, 1040 nM
  kon by corrected fluorescence anisotropy rF(t): 6.1e+06 ± 100000 M⁻¹ s⁻¹
AV-BcO, 20 °C, 1040 nM, read-out: kon by corrected fluorescence anisotropy rF(t)
  kon: 6.1e+06 M⁻¹ s⁻¹
AV-BcO, 20 °C, 1040 nM, read-out: kon by fluorescence change F(t)
  kon: 6e+06 ± 100000 M⁻¹ s⁻¹
AV-BcO, 20 °C, 1040 nM, read-out: kon by fluorescence change F(t), right block without spread
  kon: 6e+06 M⁻¹ s⁻¹
AV-BcO, 20 °C, average of F(t) and rF(t) at 260, 520, 1040 nM, read-out: kon, Average
  kon: 5.9e+06 M⁻¹ s⁻¹
AV-BcO, 25 °C, 260 nM, read-out: kon by corrected fluorescence anisotropy rF(t)
  kon: 9.5e+06 M⁻¹ s⁻¹
AV-BcO, 25 °C, 260 nM, read-out: kon by fluorescence change F(t)
  kon: 9.5e+06 ± 100000 M⁻¹ s⁻¹
AV-BcO, 25 °C, 260 nM, read-out: kon by fluorescence change F(t), right block without spread
  kon: 9.5e+06 M⁻¹ s⁻¹
AV-BcO, 25 °C, 520 nM, read-out: kon by corrected fluorescence anisotropy rF(t)
  kon: 9.5e+06 M⁻¹ s⁻¹
AV-BcO, 25 °C, 520 nM, read-out: kon by fluorescence change F(t)
  kon: 9.5e+06 ± 300000 M⁻¹ s⁻¹
AV-BcO, 25 °C, 520 nM, read-out: kon by fluorescence change F(t), right block without spread
  kon: 9.5e+06 M⁻¹ s⁻¹
AV-BcO, 25 °C, 1040 nM
  kon by corrected fluorescence anisotropy rF(t): 9.4e+06 ± 200000 M⁻¹ s⁻¹
AV-BcO, 25 °C, 1040 nM, read-out: kon by corrected fluorescence anisotropy rF(t)
  kon: 9.4e+06 M⁻¹ s⁻¹
AV-BcO, 25 °C, 1040 nM, read-out: kon by fluorescence change F(t)
  kon: 9.7e+06 ± 300000 M⁻¹ s⁻¹
AV-BcO, 25 °C, 1040 nM, read-out: kon by fluorescence change F(t), right block without spread
  kon: 9.7e+06 M⁻¹ s⁻¹
AV-BcO, 25 °C, average of F(t) and rF(t) at 260, 520, 1040 nM, read-out: kon, Average
  kon: 9.5e+06 M⁻¹ s⁻¹
AV, pH 8
  Ea^Forward: 14.4 ± 0.6 kcal/mol
AV, pH8, 10 (283.15 K)
  ln(k): 14.8
  k(average): 2.60E+06
AV, pH8, 10 (283.15 K), k (scaled)
  kon: 2.6e+06 M⁻¹ s⁻¹
AV, pH8, 15 (288.15 K)
  ln(k): 15.2
  k(average): 3.90E+06
AV, pH8, 15 (288.15 K), k (scaled)
  kon: 3.9e+06 M⁻¹ s⁻¹
AV, pH8, 20 (293.15 K)
  ln(k): 15.6
  k(average): 5.90E+06
AV, pH8, 20 (293.15 K), k (scaled)
  kon: 5.9e+06 M⁻¹ s⁻¹
AV, pH8, 25 (298.15 K)
  ln(k): 16.1
  k(average): 9.50E+06
AV, pH8, 25 (298.15 K), k (scaled)
  kon: 9.5e+06 M⁻¹ s⁻¹
AV, pH 8, forward
  ΔG^ǂ: 4.6 ± 0.3 kcal/mol
  ΔS^ǂ: 33.0 ± 2.5 cal/°K·mol
AV, pH 9
  Ea^Forward: 13.9 ± 0.7 kcal/mol
AV, pH 9, 10 (283.15 K)
  ln(k): 14.7
  k(average): 2.31E+06
AV, pH 9, 10 (283.15 K), k (scaled)
  kon: 2.3e+06 M⁻¹ s⁻¹
AV, pH 9, 15 (288.15 K)
  ln(k): 15.0
  k(average): 3.36E+06
